Measurements from ChEMBL document CHEMBL4184242, “Synthesis and antibacterial studies of teixobactin analogues with non-isostere substitution of enduracididine” (2018).
Converted amounts (≈) assume the structure as drawn.

Key:
Staphylococcus aureus [1] = assay: Antibacterial activity against methicillin-susceptible Staphylococcus aureus ATCC 29213 by CLSI M100-S17 protocol based broth dilution method; assay type: functional
Staphylococcus aureus [2] = assay: Antibacterial activity against methicillin-resistant Staphylococcus aureus isolate SA1114 by CLSI M100-S17 protocol based broth dilution method; assay type: functional

Structure (SMILES) | MIC (Staphylococcus aureus [1]) [µg/mL] | MIC (Staphylococcus aureus [2]) [µg/mL]
CC[C@@H](C)[C@@H](NC(=O)[C@@H](CCC(N)=O)NC(=O)[C@H](CO)NC(=O)[C@@H](NC(=O)[C@@H](Cc1ccccc1)NC)[C@@H](C)CC)C(=O)N[C@H](C(=O)N[C@@H](CO)C(=O)N[C@H]1C(=O)N[C@@H](C)C(=O)N[C@H](CCCCN)C(=O)N[C@@H]([C@@H](C)CC)C(=O)O[C@H]1C)[C@@H](C)CC | ≥ 32 | ≥ 32
CC[C@@H](C)[C@@H](NC(=O)[C@@H](CCC(N)=O)NC(=O)[C@H](CO)NC(=O)[C@@H](NC(=O)[C@@H](Cc1ccccc1)NC)[C@@H](C)CC)C(=O)N[C@H](C(=O)N[C@@H](CO)C(=O)N[C@H]1C(=O)N[C@@H](C)C(=O)N[C@@H](Cc2c[nH]c3ccccc23)C(=O)N[C@@H]([C@@H](C)CC)C(=O)O[C@H]1C)[C@@H](C)CC | 8 (≈ 6.28 µM) | 8 to 16 (≈ 6.28 to 12.6 µM)
CC[C@@H](C)[C@@H](NC(=O)[C@@H](CCC(N)=O)NC(=O)[C@H](CO)NC(=O)[C@@H](NC(=O)[C@@H](Cc1ccccc1)NC)[C@@H](C)CC)C(=O)N[C@H](C(=O)N[C@@H](CO)C(=O)N[C@H]1C(=O)N[C@@H](C)C(=O)N[C@@H](C(C)C)C(=O)N[C@@H]([C@@H](C)CC)C(=O)O[C@H]1C)[C@@H](C)CC | 0.5 (≈ 0.421 µM) | 2 (≈ 1.68 µM)
CC[C@@H](C)[C@@H](NC(=O)[C@@H](CCC(N)=O)NC(=O)[C@H](CO)NC(=O)[C@@H](NC(=O)[C@@H](Cc1ccccc1)NC)[C@@H](C)CC)C(=O)N[C@H](C(=O)N[C@@H](CO)C(=O)N[C@H]1C(=O)N[C@@H](C)C(=O)N[C@@H](CC(C)C)C(=O)N[C@@H]([C@@H](C)CC)C(=O)O[C@H]1C)[C@@H](C)CC | 0.5 (≈ 0.416 µM) | 2 (≈ 1.66 µM)
CC[C@@H]1NC(=O)[C@H](C)NC(=O)[C@H](NC(=O)[C@H](CO)NC(=O)[C@@H](NC(=O)[C@H](NC(=O)[C@@H](CCC(N)=O)NC(=O)[C@H](CO)NC(=O)[C@@H](NC(=O)[C@@H](Cc2ccccc2)NC)[C@@H](C)CC)[C@H](C)CC)[C@@H](C)CC)[C@H](C)OC(=O)[C@H]([C@@H](C)CC)NC1=O | 1 (≈ 0.852 µM) | 4 (≈ 3.41 µM)
CC[C@@H](C)[C@@H](NC(=O)[C@@H](CCC(N)=O)NC(=O)[C@H](CO)NC(=O)[C@@H](NC(=O)[C@@H](Cc1ccccc1)NC)[C@@H](C)CC)C(=O)N[C@H](C(=O)N[C@@H](CO)C(=O)N[C@H]1C(=O)N[C@@H](C)C(=O)N[C@@H](Cc2ccc(O)c([N+](=O)[O-])c2)C(=O)N[C@@H]([C@@H](C)CC)C(=O)O[C@H]1C)[C@@H](C)CC | 1 (≈ 0.771 µM) | 4 (≈ 3.09 µM)
CC[C@@H](C)[C@@H](NC(=O)[C@@H](CCC(N)=O)NC(=O)[C@H](CO)NC(=O)[C@@H](NC(=O)[C@@H](Cc1ccccc1)NC)[C@@H](C)CC)C(=O)N[C@H](C(=O)N[C@@H](CO)C(=O)N[C@H]1C(=O)N[C@@H](C)C(=O)N[C@@H](C2CCCCC2)C(=O)N[C@@H]([C@@H](C)CC)C(=O)O[C@H]1C)[C@@H](C)CC | 0.25 (≈ 0.204 µM) | 1 (≈ 0.815 µM)
CC[C@@H](C)[C@@H](NC(=O)[C@@H](CCC(N)=O)NC(=O)[C@H](CO)NC(=O)[C@@H](NC(=O)[C@@H](Cc1ccccc1)NC)[C@@H](C)CC)C(=O)N[C@H](C(=O)N[C@@H](CO)C(=O)N[C@H]1C(=O)N[C@@H](C)C(=O)N[C@@H](Cc2ccc(OC)cc2)C(=O)N[C@@H]([C@@H](C)CC)C(=O)O[C@H]1C)[C@@H](C)CC | 1 (≈ 0.79 µM) | ≥ 32
CC[C@@H](C)[C@@H](NC(=O)[C@@H](CCC(N)=O)NC(=O)[C@H](CO)NC(=O)[C@@H](NC(=O)[C@@H](Cc1ccccc1)NC)[C@@H](C)CC)C(=O)N[C@H](C(=O)N[C@@H](CO)C(=O)N[C@H]1C(=O)N[C@@H](C)C(=O)N[C@@H](C)C(=O)N[C@@H]([C@@H](C)CC)C(=O)O[C@H]1C)[C@@H](C)CC | 2 (≈ 1.73 µM) | 8 (≈ 6.9 µM)
CC[C@@H](C)[C@@H](NC(=O)[C@@H](CCC(N)=O)NC(=O)[C@H](CO)NC(=O)[C@@H](NC(=O)[C@@H](Cc1ccccc1)NC)[C@@H](C)CC)C(=O)N[C@H](C(=O)N[C@@H](CO)C(=O)N[C@H]1C(=O)N[C@@H](C)C(=O)N[C@@H](CC(N)=O)C(=O)N[C@@H]([C@@H](C)CC)C(=O)O[C@H]1C)[C@@H](C)CC | 8 (≈ 6.65 µM) | 16 (≈ 13.3 µM)
CC[C@@H](C)[C@@H](NC(=O)[C@@H](CCC(N)=O)NC(=O)[C@H](CO)NC(=O)[C@@H](NC(=O)[C@@H](Cc1ccccc1)NC)[C@@H](C)CC)C(=O)N[C@H](C(=O)N[C@@H](CO)C(=O)N[C@H]1C(=O)N[C@@H](C)C(=O)N[C@@H](Cc2ccc(O)cc2)C(=O)N[C@@H]([C@@H](C)CC)C(=O)O[C@H]1C)[C@@H](C)CC | 2 (≈ 1.6 µM) | 8 (≈ 6.39 µM)
CC[C@@H](C)[C@@H](NC(=O)[C@@H](CCC(N)=O)NC(=O)[C@H](CO)NC(=O)[C@@H](NC(=O)[C@@H](Cc1ccccc1)NC)[C@@H](C)CC)C(=O)N[C@H](C(=O)N[C@@H](CO)C(=O)N[C@H]1C(=O)N[C@@H](C)C(=O)N[C@@H](CC2CC2)C(=O)N[C@@H]([C@@H](C)CC)C(=O)O[C@H]1C)[C@@H](C)CC | 0.5 (≈ 0.417 µM) | 2 (≈ 1.67 µM)
CC[C@@H](C)[C@@H](NC(=O)[C@@H](CCC(N)=O)NC(=O)[C@H](CO)NC(=O)[C@@H](NC(=O)[C@@H](Cc1ccccc1)NC)[C@@H](C)CC)C(=O)N[C@H](C(=O)N[C@@H](CO)C(=O)N[C@H]1C(=O)N[C@@H](C)C(=O)N[C@@H](Cc2ccc(Br)cc2)C(=O)N[C@@H]([C@@H](C)CC)C(=O)O[C@H]1C)[C@@H](C)CC | 2 (≈ 1.52 µM) | ≥ 32
CC[C@@H](C)[C@@H](NC(=O)[C@@H](CCC(N)=O)NC(=O)[C@H](CO)NC(=O)[C@@H](NC(=O)[C@@H](Cc1ccccc1)NC)[C@@H](C)CC)C(=O)N[C@H](C(=O)N[C@@H](CO)C(=O)N[C@H]1C(=O)N[C@@H](C)C(=O)NC(C)(C)C(=O)N[C@@H]([C@@H](C)CC)C(=O)O[C@H]1C)[C@@H](C)CC | ≥ 32 | ≥ 32
CC[C@@H](C)[C@@H](NC(=O)[C@@H](CCC(N)=O)NC(=O)[C@H](CO)NC(=O)[C@@H](NC(=O)[C@@H](Cc1ccccc1)NC)[C@@H](C)CC)C(=O)N[C@H](C(=O)N[C@@H](CO)C(=O)N[C@H]1C(=O)N[C@@H](C)C(=O)N2CCC[C@H]2C(=O)N[C@@H]([C@@H](C)CC)C(=O)O[C@H]1C)[C@@H](C)CC | ≥ 32 | ≥ 32
CC[C@@H](C)[C@@H](NC(=O)[C@@H](CCC(N)=O)NC(=O)[C@H](CO)NC(=O)[C@@H](NC(=O)[C@@H](Cc1ccccc1)NC)[C@@H](C)CC)C(=O)N[C@H](C(=O)N[C@@H](CO)C(=O)N[C@H]1C(=O)N[C@@H](C)C(=O)N[C@@H](Cc2ccc(F)cc2)C(=O)N[C@@H]([C@@H](C)CC)C(=O)O[C@H]1C)[C@@H](C)CC | 0.5 (≈ 0.399 µM) | 4 (≈ 3.19 µM)
CCC[C@@H]1NC(=O)[C@H](C)NC(=O)[C@H](NC(=O)[C@H](CO)NC(=O)[C@@H](NC(=O)[C@H](NC(=O)[C@@H](CCC(N)=O)NC(=O)[C@H](CO)NC(=O)[C@@H](NC(=O)[C@@H](Cc2ccccc2)NC)[C@@H](C)CC)[C@H](C)CC)[C@@H](C)CC)[C@H](C)OC(=O)[C@H]([C@@H](C)CC)NC1=O | 0.25 (≈ 0.211 µM) | 1 to 2 (≈ 0.842 to 1.68 µM)
CC[C@@H](C)[C@@H](NC(=O)[C@@H](CCC(N)=O)NC(=O)[C@H](CO)NC(=O)[C@@H](NC(=O)[C@@H](Cc1ccccc1)NC)[C@@H](C)CC)C(=O)N[C@H](C(=O)N[C@@H](CO)C(=O)N[C@H]1C(=O)N[C@@H](C)C(=O)N[C@@H](CC2CCCCC2)C(=O)N[C@@H]([C@@H](C)CC)C(=O)O[C@H]1C)[C@@H](C)CC | 0.5 (≈ 0.403 µM) | 2 (≈ 1.61 µM)
CC[C@@H](C)[C@@H](NC(=O)[C@@H](CCC(N)=O)NC(=O)[C@H](CO)NC(=O)[C@@H](NC(=O)[C@@H](Cc1ccccc1)NC)[C@@H](C)CC)C(=O)N[C@H](C(=O)N[C@@H](CO)C(=O)N[C@H]1C(=O)N[C@@H](C)C(=O)N[C@@H]([C@@H](C)CC)C(=O)N[C@@H]([C@@H](C)CC)C(=O)O[C@H]1C)[C@@H](C)CC | 0.5 (≈ 0.416 µM) | 1 (≈ 0.832 µM)
CC[C@@H](C)[C@@H](NC(=O)[C@@H](CCC(N)=O)NC(=O)[C@H](CO)NC(=O)[C@@H](NC(=O)[C@@H](Cc1ccccc1)NC)[C@@H](C)CC)C(=O)N[C@H](C(=O)N[C@@H](CO)C(=O)N[C@H]1C(=O)N[C@@H](C)C(=O)N[C@@H](Cc2ccc(Cl)cc2)C(=O)N[C@@H]([C@@H](C)CC)C(=O)O[C@H]1C)[C@@H](C)CC | 1 (≈ 0.787 µM) | 4 (≈ 3.15 µM)
CC[C@@H](C)[C@@H](NC(=O)[C@@H](CCC(N)=O)NC(=O)[C@H](CO)NC(=O)[C@@H](NC(=O)[C@@H](Cc1ccccc1)NC)[C@@H](C)CC)C(=O)N[C@H](C(=O)N[C@@H](CO)C(=O)N[C@H]1C(=O)N[C@@H](C)C(=O)N[C@@H](Cc2ccc([N+](=O)[O-])cc2)C(=O)N[C@@H]([C@@H](C)CC)C(=O)O[C@H]1C)[C@@H](C)CC | 0.5 (≈ 0.39 µM) | 4 (≈ 3.12 µM)
CC[C@@H](C)[C@@H](NC(=O)[C@@H](CCC(N)=O)NC(=O)[C@H](CO)NC(=O)[C@@H](NC(=O)[C@@H](Cc1ccccc1)NC)[C@@H](C)CC)C(=O)N[C@H](C(=O)N[C@@H](CO)C(=O)N[C@H]1C(=O)N[C@@H](C)C(=O)NCC(=O)N[C@@H]([C@@H](C)CC)C(=O)O[C@H]1C)[C@@H](C)CC | 2 (≈ 1.75 µM) | 8 to 16 (≈ 6.98 to 14 µM)
CC[C@@H](C)[C@@H](NC(=O)[C@@H](CCC(N)=O)NC(=O)[C@H](CO)NC(=O)[C@@H](NC(=O)[C@@H](Cc1ccccc1)NC)[C@@H](C)CC)C(=O)N[C@H](C(=O)N[C@@H](CO)C(=O)N[C@H]1C(=O)N[C@@H](C)C(=O)N[C@@H](Cc2ccccc2)C(=O)N[C@@H]([C@@H](C)CC)C(=O)O[C@H]1C)[C@@H](C)CC | 1 (≈ 0.809 µM) | 4 (≈ 3.24 µM)
CCCC[C@@H]1NC(=O)[C@H](C)NC(=O)[C@H](NC(=O)[C@H](CO)NC(=O)[C@@H](NC(=O)[C@H](NC(=O)[C@@H](CCC(N)=O)NC(=O)[C@H](CO)NC(=O)[C@@H](NC(=O)[C@@H](Cc2ccccc2)NC)[C@@H](C)CC)[C@H](C)CC)[C@@H](C)CC)[C@H](C)OC(=O)[C@H]([C@@H](C)CC)NC1=O | 0.5 (≈ 0.416 µM) | 2 (≈ 1.66 µM)
